Structures can show the parent of a compound that is named as a salt. Where two headings read alike, the source gives them in different places.
How the values were obtained:
[1] = system: epithelial carcinoma A431 cell line; test: MTT Cell Proliferation Assay, A431 cells; format: cell-based; conditions: for IC50: Homo sapiens; for MTT Assay IC50(A431/MDBK): ratio in parentheses: ratio MDBK IC50 / A431 IC50 (selectivity)
How it was run: (§1)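 Each concentration ran in quadruplicate across duplicate plates, with compounds serially diluted in DMSO and delivered at 0.5% DMSO in 0.5% FBS medium for 3 days.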

[2] = target: T1, EGFR (Homo sapiens, UniProt P00533); test: EGFR in-cell Western (ICW) screening protocol (EGFR inhibition assay); format: cell-based; design: ICW 1 / ICW 2 / ICW Avg: unit not given here; conditions: for ICW assay: Table 10; for ICW Avg / ICW 1 / ICW 2: ICW assay; for ICW Avg: average of runs 1 and 2; for ICW 1: run 1; for ICW 2: run 2
T1 construct: host or cells: A431
T1 sequence (P00533 25-1210): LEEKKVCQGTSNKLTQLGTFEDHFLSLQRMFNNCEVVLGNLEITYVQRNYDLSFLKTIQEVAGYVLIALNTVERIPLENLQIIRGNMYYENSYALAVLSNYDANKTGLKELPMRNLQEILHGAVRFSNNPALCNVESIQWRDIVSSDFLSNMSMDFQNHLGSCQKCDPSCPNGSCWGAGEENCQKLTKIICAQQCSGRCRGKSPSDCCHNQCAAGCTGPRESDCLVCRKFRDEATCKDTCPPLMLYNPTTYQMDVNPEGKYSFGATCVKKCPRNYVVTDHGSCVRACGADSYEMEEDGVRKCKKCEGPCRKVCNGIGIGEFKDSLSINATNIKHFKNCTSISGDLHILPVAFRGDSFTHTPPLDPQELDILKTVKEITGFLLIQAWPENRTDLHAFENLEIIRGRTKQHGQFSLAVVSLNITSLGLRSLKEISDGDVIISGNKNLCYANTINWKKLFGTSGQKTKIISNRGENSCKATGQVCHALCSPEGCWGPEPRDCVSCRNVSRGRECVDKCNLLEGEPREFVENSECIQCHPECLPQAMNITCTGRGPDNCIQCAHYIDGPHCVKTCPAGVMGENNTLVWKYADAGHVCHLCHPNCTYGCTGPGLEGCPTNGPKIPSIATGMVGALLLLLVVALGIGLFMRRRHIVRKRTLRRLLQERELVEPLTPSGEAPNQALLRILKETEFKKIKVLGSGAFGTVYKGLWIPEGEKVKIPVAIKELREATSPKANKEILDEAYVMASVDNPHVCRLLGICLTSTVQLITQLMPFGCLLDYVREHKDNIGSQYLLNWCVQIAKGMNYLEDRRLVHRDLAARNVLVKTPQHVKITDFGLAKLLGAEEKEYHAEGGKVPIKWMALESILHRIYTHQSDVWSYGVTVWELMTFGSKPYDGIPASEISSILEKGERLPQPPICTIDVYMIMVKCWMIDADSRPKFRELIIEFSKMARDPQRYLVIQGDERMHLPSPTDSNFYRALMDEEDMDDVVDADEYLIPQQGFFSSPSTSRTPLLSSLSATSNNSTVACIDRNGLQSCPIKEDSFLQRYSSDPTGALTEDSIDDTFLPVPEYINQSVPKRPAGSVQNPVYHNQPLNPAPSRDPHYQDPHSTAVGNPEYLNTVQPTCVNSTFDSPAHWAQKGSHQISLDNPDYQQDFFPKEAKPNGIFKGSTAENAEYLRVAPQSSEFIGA
How it was run: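 In-cell Western read-out: fixed A431 cells were co-stained for total EGFR and phospho-EGFR (Tyr1173; some runs Tyr1045). Before fixation, cells were serum-starved for 2 h, exposed to compound for 4 h, then given EGF for 10 min, usually at 10 ng/ml final (6.6 or 12.5 ng/ml in some runs).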

[3] = system: MDBK line; test: MTT Cell Proliferation Assay, MDBK cells; format: cell-based, bovine; conditions: MDBK; for IC50: Bos taurus
How it was run: as §1

[4] = A-431, first value of 'a/b (c)', taken as A431 cells, read-out: MTT Screen, first value of cell
[5] = second value of 'a/b (c)', taken as MDBK cells, read-out: MTT Screen, second value of cell
[6] = A-431, 72 h, Table 10, first of x/y(ratio): A431, three day treatment, unit not printed (doses in μM), read-out: MTT assay (first value)
[7] = % Inhibition of EGF dependent EGFR phosphorylation in A431 cells, compound 125 μM in assay
[8] = 72 h, Table 10, second of x/y(ratio): MDBK, three day treatment, unit not printed (doses in μM), read-out: MTT assay (second value)
[9] = A-431, A431 cells, first value of cell, read-out: MTT Assay IC50(A431/MDBK): A431
[10] = MDBK cells, second value of cell, read-out: MTT Assay IC50(A431/MDBK): MDBK

In the case of `Cc1ccc(NS(=O)(=O)c2ccc(NC(=S)NC(=O)C(C)C)cc2)cc1C` [AD4-12003], the IC50 [1, 4] is reported as 11.5 µM, the “ICW Screen (ICW Inhibition)” value [2] is reported as 32.007 and the IC50 [3, 5] is reported as 12.8 µM.
With `Cc1ccccc1NS(=O)(=O)c1ccc(NC(=S)Nc2ccc(F)c(Cl)c2)cc1` [AD4-12477] the IC50 [1, 6] was 6.65 µM, the ICW assay [2, 7] was 44.2167 and the IC50 [3, 8] was 5.44 µM.
In the case of `Cc1cc(C)cc(NS(=O)(=O)c2ccc(NC(=S)NC(=O)CC(C)C)cc2)c1` [AD4-12017], the IC50 [1, 4] is reported as 6.53 µM, the “ICW Screen (ICW Inhibition)” value [2] is reported as 27.373 and the IC50 [3, 5] is reported as 5.93 µM.
In the case of `Cc1ccc(NS(=O)(=O)c2ccc(NC(=S)NC(=O)C3CC3)cc2)c(C)c1` [AD4-12097], the IC50 [1, 4] is reported as 15.1 µM, the “ICW Screen (ICW Inhibition)” value [2] is reported as 48.543 and the IC50 [3, 5] is reported as 9.85 µM.
With `O=c1cc(C(F)(F)F)[nH]c(Nc2nc(-c3ccccc3)c3cc(Cl)ccc3n2)n1` [11759 + TFA] the IC50 [1, 9] was 14.2 µM, the “MTT Assay IC50(A431/MDBK): ratio in parentheses” value (from here on “MTT Assay IC50(A431/MDBK): ratio”) [1] was 0.52 and the “ICW Avg” value [2] was 32.41. The “ICW 1” value [2] was 38.43, the “ICW 2” value [2] was 26.39 and the IC50 [3, 10] was 7.36 µM.
Work on `Cc1cccc(NC(=S)Nc2ccc(S(=O)(=O)Nc3ccc(Cl)c(Cl)c3)cc2)c1` [AD4-12442] yielded an IC50 [1, 6] of 5.59 µM, an ICW assay [2, 7] of 79.1185 and an IC50 [3, 8] of 5.76 µM.
With `Cc1ccc2[nH]c(Nc3nc(C)cc(-c4ccccc4)n3)nc(=O)c2c1` [compound 11315] the “MTT Assay IC50(A431/MDBK): ratio” value [1] was “very selective”, the “ICW Avg” value [2] was 49.58 and the “ICW 1” value [2] was 48.33. The “ICW 2” value [2] was 50.82 and the “MTT Assay, MDBK percent at a single concentration” value ([3]; at 100 μM) was 20%.
With `CCOc1ccc2nc(Nc3nc(=O)cc(-c4ccccc4)[nH]3)nc(C)c2c1` [12608 + TFA] the IC50 [1, 9] was 43.1 µM, the “ICW Avg” value [2] was 42.36 and the “ICW 1” value [2] was 46.64. The “ICW 2” value [2] was 38.07 and the IC50 [3, 10] was 17 µM.
`COc1ccc(NC(=S)Nc2ccc(S(=O)(=O)Nc3ccccc3C)cc2)c(OC)c1` [AD4-12517] was tested, and the IC50 [1, 6] was 30.4 µM, the ICW assay [2, 7] was 31.5308 and the IC50 [3, 8] was 20 µM.
For `CCc1ccc2nc(Nc3nc(-c4cccc(OC)c4)cc(=O)[nH]3)nc(C)c2c1` [compound 11503], the IC50 [1, 9] was 6.71 µM, the “MTT Assay IC50(A431/MDBK): ratio” value [1] was 2.83 and the “ICW Avg” value [2] was 32.21. For the same compound, the “ICW 1” value [2] was 25.88, the “ICW 2” value [2] was 38.53 and the IC50 [3, 10] was 19 µM.
`Cc1ccc(NC(=S)Nc2ccc(S(=O)(=O)Nc3ccc(Cl)cc3)cc2)cc1Cl` [AD4-12505] showed an IC50 [1, 6] of 5.69 µM, an ICW assay [2, 7] of 93.3284 and an IC50 [3, 8] of 6.02 µM.
With `O=c1cc(CN2CCN(Cc3ccc4c(c3)OCO4)CC2)c2cc3c(cc2o1)CCC3` [AD4-10179] the IC50 ([1]; A-431, 72 h, Table 11, first of x/y(ratio): A431, unit not printed (doses in μM), read-out: MTT Screen (first value)) was 13.2 µM, the “ICW Screen” value ([2]; Table 11, % Inhibition of EGF dependent EGFR phosphorylation in A431 cells, compound 125 μM in assay) was 34.742 and the IC50 ([3]; Table 11, second of x/y(ratio): MDBK, unit not printed (doses in μM), read-out: MTT Screen (second value)) was 13.9 µM.
With `Cc1cc(C)nc(Nc2nc(N)c3ccccc3n2)n1` [compound 11829] the IC50 [1, 9] was 19.6 µM, the “ICW Avg” value [2] was 65.68 and the “ICW 1” value [2] was 62.56. The “ICW 2” value [2] was 68.79 and the IC50 [3, 10] was 16.2 µM.
`COc1ccc(NS(=O)(=O)c2ccc(NC(=S)NC(=O)CC(C)C)cc2)cc1` [AD4-12040] was tested, and the IC50 [1, 4] was 17.1 µM, the “ICW Screen (ICW Inhibition)” value [2] was 47.822 and the IC50 [3, 5] was 14.8 µM.
With `Cc1cc(C)c(NS(=O)(=O)c2ccc(NC(=S)Nc3ccccc3F)cc2)c(C)c1` [AD4-12395] the IC50 [1, 6] was 7.92 µM, the ICW assay [2, 7] was 57.5206 and the IC50 [3, 8] was 6.96 µM.
In the case of `COc1cccc(-c2cc(=O)[nH]c(Nc3nc(C)c4cccc(C)c4n3)n2)c1` [compound 11474], the IC50 [1, 9] is reported as 3.57 µM, the “MTT Assay IC50(A431/MDBK): ratio” value [1] is reported as 7.98 and the “ICW Avg” value [2] is reported as 40.45. For the same compound, the “ICW 1” value [2] was 32.19, the “ICW 2” value [2] was 48.71 and the IC50 [3, 10] was 28.5 µM.
With `Cc1cc(C)nc(Nc2nc(-c3ccccc3)c3cc(Cl)ccc3n2)n1` [compound 11316] the IC50 [1, 9] was 44.4 µM, the “MTT Assay IC50(A431/MDBK): ratio” value [1] was 0.45 and the “ICW Avg” value [2] was 50.76. For the same compound, the “ICW 1” value [2] was 47.95, the “ICW 2” value [2] was 53.57 and the IC50 [3, 10] was 19.9 µM.
With `Cc1ccccc1C(=O)NC(=S)Nc1ccc(S(=O)(=O)Nc2ccccc2)cc1` [AD4-10706] the IC50 [1, 4] was 15.1 µM, the “ICW Screen (ICW Inhibition)” value [2] was 55.497 and the IC50 [3, 5] was 23.1 µM.

Reference: patent US20140179681A1, “METHODS AND COMPOSITIONS OF TARGETED DRUG DEVELOPMENT” (priority 2010, published 2014)
